Our source for the IC50 values is patent US20260042755A1, “GPR6 INVERSE AGONISTS” (MapLight Therapeutics, Inc., priority 2022, published 2026).

For one experiment, the target named is T1, GPR3 (Homo sapiens, UniProt P46089).
T1 construct: expressed in transfected cells; host or cells: CHO cells
The experiment is described as follows: GPR3 antagonist functional cAMP assay (LANCE Ultra cAMP TR-FRET, CHO cells stably expressing GPR3). Type of experiment: cell-based. Put shortly:
(§1)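 10,000 cells/well; KRB buffer + 0.1% BSA + 150 μM Ro 20-1724; cpd 45 min, 37 °C, 0.1% DMSO; TR-FRET cAMP, 665 nm; 4-PL fit, normalized to DMSO (0.1%) and reference (100%) → IC50.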
Background: cAMP levels reflect the balance of adenylyl cyclase and phosphodiesterase activity.

The target of a further experiment is T2, GPR6 (Homo sapiens, UniProt P46095).
T2 construct: expressed in transfected cells; host or cells: CHO cells
Briefly: GPR6 antagonist functional cAMP assay (LANCE Ultra cAMP TR-FRET, CHO cells stably expressing GPR6). Type of experiment: cell-based. Put shortly:
as §1

Setting [1] is: procedure as described in Example 24.
Setting [2] is: CHO cells stably expressing GPR3, cAMP assay (Example 24).
Setting [3] is: CHO cells stably expressing GPR6, cAMP assay (Example 24).

Molecules are shown by their SMILES. pIC50: −log10 of the molar value.

T2 sequence (P46095 whole entry): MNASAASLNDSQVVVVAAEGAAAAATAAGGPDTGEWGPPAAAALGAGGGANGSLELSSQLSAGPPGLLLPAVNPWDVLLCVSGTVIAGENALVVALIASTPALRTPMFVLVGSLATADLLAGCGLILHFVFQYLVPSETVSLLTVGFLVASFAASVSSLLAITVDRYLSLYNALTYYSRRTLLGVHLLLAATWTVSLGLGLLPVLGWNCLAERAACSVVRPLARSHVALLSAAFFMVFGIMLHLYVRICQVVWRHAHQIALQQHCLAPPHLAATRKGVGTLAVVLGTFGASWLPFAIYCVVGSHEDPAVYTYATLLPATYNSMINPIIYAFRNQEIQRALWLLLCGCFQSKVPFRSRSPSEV
T1 sequence (P46089 whole entry, species assumed): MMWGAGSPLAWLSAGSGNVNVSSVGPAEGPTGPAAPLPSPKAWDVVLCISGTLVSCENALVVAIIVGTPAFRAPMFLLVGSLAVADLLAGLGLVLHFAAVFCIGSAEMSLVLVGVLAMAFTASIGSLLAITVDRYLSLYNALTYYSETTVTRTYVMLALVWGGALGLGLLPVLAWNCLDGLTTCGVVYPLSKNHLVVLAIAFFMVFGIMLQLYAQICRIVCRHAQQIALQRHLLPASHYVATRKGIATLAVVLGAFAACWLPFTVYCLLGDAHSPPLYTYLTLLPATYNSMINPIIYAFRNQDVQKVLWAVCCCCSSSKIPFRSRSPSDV

A word on the pIC50: it is the IC50 on a negative log10 scale, so that one unit is a factor of ten. The low end stands for a high IC50, the high end for a low IC50. With `CC(=O)N1CCc2nc(N3CCC(Oc4ccc(F)cc4F)CC3)c(-c3cn[nH]c3C)nc2C1` [Compound 43, 1-{2-[4-(2,4-difluorophenoxy)piperidin-1-yl]-3-(5-methyl-1H-pyrazol-4-yl)-5H,6H,7H,8H-pyrido[3,4-b]pyrazin-6-yl}ethan-1-one], the pIC50 against GPR3 (setting [1]) was 4.52 to 6.00; against GPR6 (setting [1]), 6.00 to 7.00.
Take `CC(=O)N1CCc2nc(N3CCC(Oc4ccc(F)cc4F)CC3)c(-c3cnn(C)c3)nc2C1` [Compound 44, 1-{2-[4-(2,4-difluorophenoxy)piperidin-1-yl]-3-(1-methyl-1H-pyrazol-4-yl)-5H,6H,7H,8H-pyrido[3,4-b]pyrazin-6-yl}ethan-1-one]: the pIC50 is 4.52 to 6.00 at GPR3 (setting [1]) and 6.00 to 7.00 against GPR6 (setting [1]).
For `CC(=O)N1CCc2nc(N3CCC(Oc4ccc(F)cc4F)CC3)c(-c3cc[nH]c3)nc2C1` [Compound 46, 1-{2-[4-(2,4-difluorophenoxy)piperidin-1-yl]-3-(1H-pyrrol-3-yl)-5H,6H,7H,8H-pyrido[3,4-b]pyrazin-6-yl}ethan-1-one], the pIC50 was 4.52 to 6.00 at GPR3 (setting [1]) and 6.00 to 7.00 against GPR6 (setting [1]).
The corresponding values for `CC(=O)N1CCc2nc(N3CCC(Oc4ccc(F)cc4F)CC3)c(-c3c(C)nn(C4CCCCO4)c3C)nc2C1` (stereo not shown) [Compound 47, 1-{2-[4-(2,4-difluorophenoxy)piperidin-1-yl]-3-[3,5-dimethyl-1-(oxan-2-yl)-1H-pyrazol-4-yl]-5H,6H,7H,8H-pyrido[3,4-b]pyrazin-6-yl}ethan-1-one] are 4.52 to 6.00 and 4.52 to 6.00.
In the case of `CC(=O)N1CCc2nc(N3CCC(Oc4ccc(F)cc4F)CC3)c(-c3cccc(N(C)C)n3)nc2C1` [Compound 48, 1-{2-[4-(2,4-difluorophenoxy)piperidin-1-yl]-3-[6-(dimethylamino)pyridin-2-yl]-5H,6H,7H,8H-pyrido[3,4-b]pyrazin-6-yl}ethan-1-one], the pIC50 at GPR3 (setting [1]) and on GPR6 (setting [1]) was 4.52 to 6.00 throughout.
With `CC(=O)N1CCc2nc(N3CCC(Oc4ccc(F)cc4F)CC3)c(-c3cccc(C(F)(F)F)n3)nc2C1` [Compound 50, 1-{2-[4-(2,4-difluorophenoxy)piperidin-1-yl]-3-[6-(trifluoromethyl)pyridin-2-yl]-5H,6H,7H,8H-pyrido[3,4-b]pyrazin-6-yl}ethan-1-one], the pIC50 on GPR3 (setting [1]) is 4.52 to 6.00; against GPR6 (setting [1]), 6.00 to 7.00.
The corresponding values for `CC(=O)N1CCc2nc(N3CCC(Oc4ccc(F)cc4F)CC3)c(-c3ccc(=O)[nH]c3)nc2C1` [Compound 51, 5-{6-acetyl-2-[4-(2,4-difluorophenoxy)piperidin-1-yl]-5H,6H,7H,8H-pyrido[3,4-b]pyrazin-3-yl}-1,2-dihydropyridin-2-one] are 4.52 to 6.00 and 6.00 to 7.00.
On the same counts, the results for `Fc1ccc(CN2CCN(c3nc4ccncc4nc3-c3cn[nH]c3)CC2)c(F)c1` [Compound 52, 1-[(2,4-difluorophenyl)methyl]-4-[3-(1H-pyrazol-4-yl)pyrido[3,4-b]pyrazin-2-yl]piperazine] are 4.52 to 6.00 and 6.00 to 7.00.
On the same counts, the results for `CC(=O)N1CCc2nc(N3CCC(Oc4ccc(F)cc4F)CC3)c(-c3ccn(C(=O)OC(C)(C)C)c3)nc2C1` [Compound 53, tert-butyl 3-{6-acetyl-2-[4-(2,4-difluorophenoxy)piperidin-1-yl]-5H,6H,7H,8H-pyrido[3,4-b]pyrazin-3-yl}-1H-pyrrole-1-carboxylate] are 6.00 to 7.00 and 4.52 to 6.00.
Take `Fc1ccc(OC2CCN(c3nc4ccncc4nc3-c3cnc[nH]3)CC2)c(F)c1` [Compound 54, 4-(2,4-difluorophenoxy)-1-[3-(1H-imidazol-5-yl)pyrido[3,4-b]pyrazin-2-yl]piperidine]: the pIC50 against GPR3 (setting [1]) and against GPR6 (setting [1]) was 4.52 to 6.00 each time.
For `CN(c1ccc(F)cc1F)C1CCN(c2nc3ccncc3nc2-c2cn[nH]c2)CC1` [Compound 55, 1-(3-(1H-pyrazol-4-yl)pyrido[3,4-b]pyrazin-2-yl)-N-(2,4-difluorophenyl)-N-methylpiperidin-4-amine], the pIC50 on GPR3 (setting [1]) and against GPR6 (setting [1]) was 4.52 to 6.00 throughout.
With `COc1ccnc(-c2nc3c(nc2N2CCC(Oc4ccc(F)cc4F)CC2)CCN(C(C)=O)C3)n1` [Compound 56, 1-{2-[4-(2,4-difluorophenoxy)piperidin-1-yl]-3-(4-methoxypyrimidin-2-yl)-5H,6H,7H,8H-pyrido[3,4-b]pyrazin-6-yl}ethan-1-one], the pIC50 at GPR3 (setting [2]) was 6.00 to 7.00; at GPR6 (setting [3]) it was 4.52 to 6.00.
On the same counts, the results for `CC(=O)N1CCc2nc(N3CCC(Oc4ccc(F)cc4F)CC3)c(-c3cccc(F)n3)nc2C1` [Compound 57, 1-{2-[4-(2,4-difluorophenoxy)piperidin-1-yl]-3-(6-fluoropyridin-2-yl)-5H,6H,7H,8H-pyrido[3,4-b]pyrazin-6-yl}ethan-1-one] are 4.52 to 6.00 and 4.52 to 6.00.
For `O=S1(=Nc2ccc(F)cc2F)CCN(c2nc3ccncc3nc2-c2cn[nH]c2)CC1` [Compound 58, 4-(3-(1H-pyrazol-4-yl)pyrido[3,4-b]pyrazin-2-yl)-1-((2,4-difluorophenyl)imino)-1l6-thiomorpholine 1-oxide], the pIC50 on GPR3 (setting [2]) and at GPR6 (setting [3]) was 4.52 to 6.00 in each case.
In the case of `COc1cccc(-c2nc3c(nc2N2CCC(Oc4ccc(F)cc4F)CC2)CCN(S(C)(=O)=O)C3)n1` [Compound 59, 2-(4-(2,4-difluorophenoxy)piperidin-1-yl)-3-(6-methoxypyridin-2-yl)-6-(methylsulfonyl)-5,6,7,8-tetrahydropyrido[3,4-b]pyrazine], the pIC50 against GPR3 (setting [2]) and at GPR6 (setting [3]) was 4.52 to 6.00 throughout.
With `CC(=O)N1CCc2nc(N3CCC(Oc4ccc(F)cc4F)CC3)c(-c3cccc(OC4CCOC4)n3)nc2C1` (stereo not shown) [Compound 61, 1-{2-[4-(2,4-difluorophenoxy)piperidin-1-yl]-3-[6-(oxolan-3-yloxy)pyridin-2-yl]-5H,6H,7H,8H-pyrido[3,4-b]pyrazin-6-yl}ethan-1-one], the pIC50 against GPR3 (setting [2]) and against GPR6 (setting [3]) was 4.52 to 6.00 each time.
Regarding `CC(=O)N1CCc2nc(N3CCC(Oc4ccc(F)cc4F)CC3)c(-c3cn[nH]c3C3CC3)nc2C1` [Compound 62, 1-[3-(5-cyclopropyl-1H-pyrazol-4-yl)-2-[4-(2,4-difluorophenoxy)piperidin-1-yl]-5H,6H,7H,8H-pyrido[3,4-b]pyrazin-6-yl]ethan-1-one], the pIC50 against GPR3 (setting [2]) and at GPR6 (setting [3]) was 4.52 to 6.00 each time.
Turning to `COCC1(Oc2ccc(F)cc2F)CCN(c2nc3ccncc3nc2-c2cn[nH]c2)CC1` [Compound 63, 2-(4-(2,4-difluorophenoxy)-4-(methoxymethyl)piperidin-1-yl)-3-(1H-pyrazol-4-yl)pyrido[3,4-b]pyrazine], the pIC50 against GPR3 (setting [2]) was 6.00 to 7.00; against GPR6 (setting [3]) it was 4.52 to 6.00.
`Clc1ccc(Cl)c(CN2CCN(c3nc4cnccc4nc3-c3ncc[nH]3)CC2)c1` [Compound 64, 1-[(2,5-dichlorophenyl)methyl]-4-[2-(1H-imidazol-2-yl)pyrido[3,4-b]pyrazin-3-yl]piperazine]: the pIC50 against GPR3 (setting [2]) and on GPR6 (setting [3]) was 6.00 to 7.00 each time.
As to `Fc1ccc(CN2CCN(c3nc4cnccc4nc3-c3ncc[nH]3)CC2)c(Cl)c1` [Compound 65, 1-[(2-chloro-4-fluorophenyl)methyl]-4-[2-(1H-imidazol-2-yl)pyrido[3,4-b]pyrazin-3-yl]piperazine], the pIC50 was 6.00 to 7.00 on GPR3 (setting [2]) and 4.52 to 6.00 on GPR6 (setting [3]).
As for `CC(=O)N1CCc2nc(N3CCC(Oc4ccc(F)cc4F)CC3)c(-c3cc[nH]c(=O)c3)nc2C1` [Compound 66, 4-{6-acetyl-2-[4-(2,4-difluorophenoxy)piperidin-1-yl]-5H,6H,7H,8H-pyrido[3,4-b]pyrazin-3-yl}-1,2-dihydropyridin-2-one], the pIC50 on GPR3 (setting [2]) and against GPR6 (setting [3]) was 4.52 to 6.00 in each case.
Turning to `COCn1ccnc1-c1nc2c(nc1N1CCC(Oc3ccc(F)cc3F)CC1)CCN(C(C)=O)C2` [Compound 67, 1-{2-[4-(2,4-difluorophenoxy)piperidin-1-yl]-3-[1-(methoxymethyl)-1H-imidazol-2-yl]-5H,6H,7H,8H-pyrido[3,4-b]pyrazin-6-yl}ethan-1-one], the pIC50 on GPR3 (setting [2]) and against GPR6 (setting [3]) was 4.52 to 6.00 each time.
As for `CC(=O)N1CCc2nc(N3CCC(Oc4ccc(F)cc4F)CC3)c(-c3cccc(C)n3)nc2C1` [Compound 68, 1-{2-[4-(2,4-difluorophenoxy)piperidin-1-yl]-3-(6-methylpyridin-2-yl)-5H,6H,7H,8H-pyrido[3,4-b]pyrazin-6-yl}ethan-1-one], the pIC50 was 4.52 to 6.00 at GPR3 (setting [2]) and 6.00 to 7.00 against GPR6 (setting [3]).
On the same counts, the results for `CC(=O)N1CC=C(c2nc3c(nc2N2CCC(Oc4ccc(F)cc4F)CC2)CCN(C(C)=O)C3)CC1` [Compound 69, 1-(3-(1-acetyl-1,2,3,6-tetrahydropyridin-4-yl)-2-(4-(2,4-difluorophenoxy)piperidin-1-yl)-7,8-dihydropyrido[3,4-b]pyrazin-6(5H)-yl)ethan-1-one] are 4.52 to 6.00 and 4.52 to 6.00.
On the same counts, the results for `CS(=O)(=O)N1CCc2nc(N3CCC(Oc4ccc(F)cc4F)CC3)c(-c3cn[nH]c3)nc2C1` [Compound 70, 2-(4-(2,4-difluorophenoxy)piperidin-1-yl)-6-(methylsulfonyl)-3-(1H-pyrazol-4-yl)-5,6,7,8-tetrahydropyrido[3,4-b]pyrazine] are 4.52 to 6.00 and 6.00 to 7.00.
On to `CC(=O)N1CCC=C(c2nc3c(nc2N2CCC(Oc4ccc(F)cc4F)CC2)CCN(C(C)=O)C3)C1` [Compound 71, 1-[3-(1-acetyl-1,2,5,6-tetrahydropyridin-3-yl)-2-[4-(2,4-difluorophenoxy)piperidin-1-yl]-5H,6H,7H,8H-pyrido[3,4-b]pyrazin-6-yl]ethan-1-one], for which the pIC50 against GPR3 (setting [2]) and at GPR6 (setting [3]) was 4.52 to 6.00 each time.
